# Experimental data published in patent US20200289434A1, “RAPIDLY IMPROVING ENDOTHELIAL FUNCTION, REDUCING ARTERIAL STIFFNESS AND REVERSING CALCIFICATION OF BLOOD VESSELS BY ADMINISTERING VITAMIN K” (KAYDENCE PHARMA AS, priority 2019, published 2020).
# Experiments:
# ApoE/LDLR−/− mice [1] = experiment: Example 3 first part: MRI assessment of endothelium-dependent vasodilatation (FMD in FA, Ach in AA), young mice; assay type: in vivo
# Description: Mice were randomly assigned to one of four experimental groups: control (untreated group) and three groups treated with vitamin K2 at a dose of 0.05, 0.5, and 5 mg/kg b.w./day, respectively. End-point measurements were performed at the age of 10-16 weeks.
# Magnetic resonance imaging (MRI) experiments were performed using a 9.4T scanner (BioSpec 94/20 USR, Bruker, Germany) located in the Department of Magnetic Resonance Imaging, Institute of Nuclear Physics, Polish Academy of Sciences in Krakow. During the experiment, mice were anaesthetized using isoflurane (Aerrane, Baxter Sp. z o. o., Poland, 1.7 vol %) in an oxygen and air (1:2) mixture and imaged in the supine position. Activity of the heart, respiration, and body temperature (maintained at 37° C. using circulating warm water) were monitored using a Monitoring and Gating System (SA Inc., Stony Brook, N.Y., USA).
# Endothelial function was assessed based on vascular responses to acetylcholine (Ach) administration in brachiocephalic artery (BCA), left common carotid artery (LCA) (FIGS. 6 A and B) and abdominal aorta (AA) (FIG. 6C) as well as to responses to increase in flow (flow-mediated dilatation, FMD) in femoral artery (FA) (FIG. 6D) as described in Bar A, Skorka T, Jasinski K, Sternak M, Bartel Z, Tyrankiewicz U, et al. Retrospectively-gated MRI for in vivo assessment of endothelium-dependent vasodilatation and endothelial permeability in murine models of endothelial dysfunction. NMR Biomed 2016; 29(8):1088.; Sternak M, Bar A, Adamski M G, Mohaissen T, Marczyk B, Kieronska A, et al. The Deletion of Endothelial Sodium Channel α (αENaC) Impairs Endothelium-Dependent Vasodilation and Endothelial Barrier Integrity in Endotoxemia in Vivo. Front Pharmacol 2018; 9:178. doi:10.3389/fphar.2018.00178.; and Bar A, Olkowicz M, Tyrankiewicz U, Kus E, Jasinski K, Smolenski R T, et al. Functional and Biochemical Endothelial Profiling In Vivo in a Murine Model of Endothelial Dysfunction; Comparison of Effects of 1-Methylnicotinamide and Angiotensin-converting Enzyme Inhibitor. Front Pharmacol 2017; 8:183. doi:10.3389/fphar.2017.00183.).
# Vasomotor response was examined by comparing two time-resolved 3D images of the vessels prior to and 25 minutes after intraperitoneal Ach administration (Sigma-Aldrich, Poznan Poland: 50 μl, 16.6 mg/kg), as well as prior to and 5 minutes after vessel occlusion. Images were acquired using the cine IntraGate™ FLASH 3D sequence, reconstructed with the IntraGate 1.2.b.2 macro (Bruker). End-diastolic volumes of vessels were analyzed using ImageJ software 1.46r (NIH Bethesda, Md., USA) and scripts written in Matlab (MathWorks, Natick, Mass., USA). Imaging parameters included the following: repetition time (TR)—6.4 ms, echo time (TE)—1.4 ms, field of view (FOV)—30×30×5 mm3, matrix size—256×256×30, flip angle (FA)—30°, and number of accumulations (NA)—15, reconstructed to 7 cardiac frames. Total scan time was 10 minutes.
# ApoE/LDLR−/− mice [2] = experiment: Example 3 second part: nitrite and nitrate concentration in plasma; assay type: in vivo; conditions: eight weeks
# [3] = 0.05 mg/kg b.w./day, eight weeks
# [4] = 0.05 mg/kg b.w./day, four weeks, 15-week-old mice
structure (smiles),measurement,setting,value
"CC(C)=CCC/C(C)=C/CC/C(C)=C/CC/C(C)=C/CC/C(C)=C/CC/C(C)=C/CC/C(C)=C/CC1=C(C)C(=O)c2ccccc2C1=O [MK-7, menaquinone-7]","Ach response in AA, volume change",ApoE/LDLR−/− mice [1]; [3],−0.65%
same,"FMD in FA, volume change",ApoE/LDLR−/− mice [1]; [3],28.34%
same,"Ach response in AA, volume change",ApoE/LDLR−/− mice [1]; [4],−1.59%
same,"FMD in FA, volume change",ApoE/LDLR−/− mice [1]; [4],33.26%
same,endothelial function (FMD-FA and ACH-AA),"ApoE/LDLR−/− mice [1]; 0.05 mg/kg b.w./day, two weeks",not sufficient to improve endothelial function
same,"Ach response in AA, volume change","ApoE/LDLR−/− mice [1]; 0.5 mg/kg b.w./day, two weeks",1.52%
same,"FMD in FA, volume change","ApoE/LDLR−/− mice [1]; 0.5 mg/kg b.w./day, two weeks",28.57%
same,"Ach response in AA, volume change","ApoE/LDLR−/− mice [1]; 5 mg/kg b.w./day, two weeks",0.16%
same,"FMD in FA, volume change","ApoE/LDLR−/− mice [1]; 5 mg/kg b.w./day, two weeks",26.55%
same,improvement in endothelial function compared with low dose for 4 weeks,"ApoE/LDLR−/− mice [1]; 0.5 and 5 mg/kg b.w./day, four weeks",not superior
same,concentration of NO3− in plasma,ApoE/LDLR−/− mice [2]; 0.03 or 10 mg/kg b.w./day,did not change significantly
same,increase in NO2− concentration in plasma,ApoE/LDLR−/− mice [2]; high dose 10 mg/kg b.w./day,~42%
same,increase in NO2− concentration in plasma,ApoE/LDLR−/− mice [2]; low dose 0.03 mg/kg b.w./day,about 58%
